The record followed here is US20240309059A1, “PEPTIDE HAVING ANTI-VIRAL ACTIVITY, ANTI-VIRAL AGENT COMPRISING SAID PEPTIDE, AND METHOD FOR PRODUCING SAID ANTI-VIRAL AGENT” (National University Corporation Tokyo Medical and Dental …, priority 2021, published 2024).

Ends that are not written are not given here.

The test system of test [1] is SARS-COV-2 UK variant (B.1.1.7).
The subject of test [2] is SARS-COV-2 Brazilian variant (P.1).
For test [3], the target named is receptor binding domain (RBD) in the SARS-COV-2 South African variant (B.1.351) (Severe acute respiratory syndrome coronavirus 2, UniProt P0DTC2, E484K/K417N/N501Y).
For test [4], the target named is receptor binding domain (RBD) in the SARS-COV-2 Brazilian variant (P.1) (Severe acute respiratory syndrome coronavirus 2, UniProt P0DTC2, E484K/K417T/N501Y).
In test [5] the target is receptor binding domain (RBD) in the SARS-COV-2 Omicron (sublineage BA.1) variant (B.1.1.529/BA.1) (Severe acute respiratory syndrome coronavirus 2, UniProt P0DTC2, E484A/G339D/G446S/G496S/K417N/N440K/N501Y/Q493R/Q498R/S371L/S373P/S375F/S477N/T478K/Y505H).
The target in test [6] is receptor binding domain (RBD) in the SARS-COV-2 UK variant (B.1.1.7) (Severe acute respiratory syndrome coronavirus 2, UniProt P0DTC2, N501Y).
Test [7] concerns the target receptor binding domain (RBD) in the SARS-COV-2 Indian variant (κ type (B.1.617.1)) (Severe acute respiratory syndrome coronavirus 2, UniProt P0DTC2, E484Q/L452R).
Test [8] has as its target receptor binding domain (RBD) in the SARS-COV-2 Indian variant (δ type (B.1.617.2)) (Severe acute respiratory syndrome coronavirus 2, UniProt P0DTC2, L452R/T478K).
Test [9] relates to SARS-COV-2 Indian variant (δ type) (B.1.617.2).
The subject of test [10] is SARS-COV-2 Omicron (sublineage BA.1) variant (B.1.1.529/BA.1).

In the case of “DKEWILQKIYEIMRRLDEEGHAEASMRVSDLIYEFMKKD [Ce9]”, the IC50 in test [1] was determined as 13 nM; in [2], 1200 nM.

Take “DKEWILQKIYEIMRRLDEEGHGEASLRVSDLIYEFMKKD [Ce41]”: the “binding activity to the receptor binding domain (RBD)” value in test [3] is listed as “high binding activity”; in [4] it was “high binding activity”; in test [5], “cannot maintain binding”; in test [6], “high binding activity”; in [7], “high binding activity”; in test [8], “high binding activity”. Also, the IC50 in test [1] turned out to be 0.68 nM. Moreover, the “dissociation from the RBD once bound” value in test [6] was “does not dissociate at all”.

Turning to “DKEWILQKIYEIMRRLDEEGHGEASLRVSDLIYEFMKRD [Ce59]”, the IC50 in test [9] stood at 16 nM.

With “DKEWILYKIYEIMVRLDEEGHGEASLMVSDLIYEFMKRD [Ce149]”, the IC50 in test [1] worked out at 0.0021 nM; in test [9], 0.15 nM; in test [10], 1 nM.

“DKLWILQKIYEIMVRLDEEGHGEASLMVSDLIYEFMKRD [Ce172]”: the IC50 in [1] is 0.0022 nM; in test [9], 0.53 nM; in test [10] it was 0.038 nM.

For orientation: IC50 means the concentration that inhibits the measured activity by half. The low end stands for inhibition by little substance, the high end for a need for much substance.
